Active and inactive are the calls of the source. The rule behind the calls is not given here.

The target of test [1] is T1, Integrin alpha-V/beta-3 (Homo sapiens, UniProt P05106+P06756). The experiment in a line: Activation of alphaVbeta3 integrin in HUVEC at 10 uM by flow cytometry. The test is classed as protein-complex assay.
Test [2] concerns HEK-293T. Put plainly: Selectivity ratio of IC50 for soluble truncated human recombinant 6His-tagged alpha5beta1 and integrins were expressed in HEK293T cells to IC50 for soluble truncated human recombinant Fc-tagged alphaVbeta3 and integrins. Type of test: cell-based.
Test [3] addresses T1, Integrin alpha-V/beta-3. The experiment in a line: Binding affinity to soluble truncated human recombinant Fc-tagged alphaVbeta3 and integrins were expressed in HEK293T cells after 2 hrs by competition ELISA-like assay. The test is classed as cell-based, HEK-293T. (ELISA stands for enzyme-linked immunosorbent assay.)
Test [4] deals with Integrin alpha-5/beta-1 (Homo sapiens, UniProt P05556+P08648). The experiment in a line: Binding affinity to soluble truncated human recombinant 6His-tagged alpha5beta1 and integrins were expressed in HEK293T cells after 2 hrs by competition ELISA-like assay. The test is classed as cell-based, HEK-293T.

Turning to `N=C(N)NCCC[C@@H]1NC(=O)[C@H](CCCCn2cc(CCC(=O)Nc3ccc(F)cc3)nn2)NC(=O)[C@@H](Cc2ccccc2)NC(=O)[C@H](CC(=O)O)NC(=O)CNC1=O`, the outcome in test [1] was Active. Further, the Ratio IC50 in test [2] was found to be 300.

In general, IC50 refers to the concentration that gives 50% inhibition. For the compound `NC(N)=NCCC[C@@H]1NC(=O)[C@H](CCCCn2cc(CCC(=O)Nc3ccc(F)cc3)nn2)NC(=O)[C@@H](Cc2ccccc2)NC(=O)[C@H](CC(=O)O)NC(=O)CNC1=O`, the IC50 in test [3] is 10.6 nM; in test [4] it was 3650 nM.

(Values after ChEMBL document CHEMBL2440079, “Synthesis and in vitro evaluation of a novel radioligand for αvβ3 integrin receptor imaging: [18F]FPPA-c(RGDfK)” (Bioorg Med Chem Lett, 2013).)
